The record followed here is patent US20240174680A1, “CDK2 INHIBITORS AND METHODS OF USING THE SAME” (Cedilla Therapeutics, Inc., priority 2021, published 2024).

For the test, the target named is CDK2/Cyclin E1 (Homo sapiens, UniProt P24941). The experiment in a line: CDK2/Cyclin E1 Caliper LabChip EZ Reader mobility shift assay. The class given is biochemical. Details: purchased Eurofins 14-475. The settings on record: read-out: Caliper Assay (CDK2/CCNE1): IC50. Summed up:
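Substrate-to-product conversion of fluorescent peptide (1.5 μM final) read by capillary electrophoresis after 100 min reaction, EDTA-quenched. Enzyme (2.5 nM final) and ATP (100 μM final) were preincubated 30 min with inhibitor dilutions first. % activity vs concentration fitted four-parameter for IC50.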

In the case of `CNC(=O)[C@@H](NC(=O)[C@@H]1CN(C(=O)c2cnn(Cc3ccccc3)c2)CC12CN(C(=O)[C@H]1CC1(C)C)C2)[C@@H](C)OCC1(C(F)(F)F)CC1` [I-205A], the IC50 is 100 to 1000 nM.

In the case of `Cc1n[nH]c(C(=O)N2C[C@@H](C(=O)N[C@H](C(=O)N3CCCCC3)[C@@H](C)OCC3CCCCC3)C3(C2)CN(C(=O)[C@H]2CC2(C)C)C3)n1` [I-241], the IC50 was in the range of 1000 to 10000 nM.

On to `CNC(=O)[C@@H](NC(=O)[C@H]1CN(C(=O)c2cnc(Cl)s2)CC12CN(C(=O)[C@H]1CC1(C)C)C2)[C@@H](C)OCC1CCCCC1` [I-189B], for which the IC50 is greater than 10000 nM.

Turning to `CNC(=O)[C@@H](NC(=O)[C@@H]1CN(C(=O)c2cncs2)CC12CN(C(=O)CC1CC1)C2)[C@@H](C)OCC1CCCCC1` [I-103A], the IC50 was in the range of 100 to 1000 nM.

For the compound `CNC(=O)[C@@H](NC(=O)C1CN(Cc2n[nH]c3ccccc23)CC12CN(C(=O)[C@H]1CC1(C)C)C2)[C@@H](C)OCc1ccccc1` (some centres unmarked) [I-159], the IC50 was greater than 10000 nM.

Consider `COC(=O)[C@H](CO)NC(=O)[C@@H]1CN(C(=O)c2cnn(Cc3ccccc3)c2)CC12CN(C(=O)[C@H]1CC1(C)C)C2` [I-209A], for which the IC50 lay within 1000 to 10000 nM.

`CNC(=O)[C@@H](NC(=O)[C@@H]1CN(C(=O)c2cncs2)CC12CN(CC1COC1)C2)[C@@H](C)OCC12CCC(CC1)OC2` [I-348]: the IC50 lay in the range of 1000 to 10000 nM.

As to `COCCNC(=O)[C@H]1CN(C(=O)c2cnn(Cc3ccccc3)c2)CC12CN(C(=O)[C@H]1CC1(C)C)C2` [I-122B], the IC50 is greater than 10000 nM.

As to `COC[C@H]1CCCN(C(=O)[C@@H](C)NC(=O)[C@@H]2CN(C(=O)c3cncs3)CC23CN(C(=O)[C@H]2CC2(C)C)C3)C1` [I-324], the IC50 was in the range of 1000 to 10000 nM.

Turning to `CC1(C)C[C@@H]1C(=O)N1CC2(CN(C(=O)c3cncs3)C[C@H]2C(=O)NCc2cccc(C3CCCCC3)n2)C1` [I-414], the IC50 is 10 to 100 nM.

In the case of `C[C@@H]1C[C@H](C)CN(C(=O)[C@@H](NC(=O)C2CN(C(=O)c3cn[nH]c3)CC23CN(C(=O)[C@H]2CC2(C)C)C3)[C@@H](C)OCc2ccccc2)C1` (some centres unmarked) [I-124], the IC50 is 100 to 1000 nM.

For `CC1(C)C[C@@H]1C(=O)N1CC2(CN(C(=O)c3cnn(Cc4ccccc4)c3)CC2C(=O)Nc2ncc(-c3ccccc3)o2)C1` (some centres unmarked) [I-93], the IC50 is 1000 to 10000 nM.

On to `C[C@@H](OCc1ccccc1)[C@H](NC(=O)C1CN(C(=O)c2cnn(Cc3ccccc3)c2)CC12CN(C(=O)[C@H]1CC1(C)C)C2)C(=O)NCC#CCN` (some centres unmarked) [I-28], for which the IC50 lay within 100 to 1000 nM.

For the compound `CNC(=O)[C@@H](NC(=O)[C@@H]1CN(C(=O)c2ccncc2)CC12CN(C(=O)[C@H]1CC1(C)C)C2)[C@@H](C)OCc1ccccc1` [I-46A], the IC50 is greater than 10000 nM.

As to `CC1(C)C[C@@H]1C(=O)N1CC2(CN(C(=O)c3cnn(Cc4ccccc4)c3)C[C@H]2C(=O)Nc2ccc(-c3ccccc3)cc2)C1` [I-81A], the IC50 lay within 100 to 1000 nM.

Turning to `CNC(=O)[C@@H](NC(=O)[C@@H]1CN(C(=O)c2cnn(Cc3ccccc3)c2)CC12CN(C(=O)C1(CC3CC3)CC1)C2)[C@@H](C)OCc1ccccc1` [I-116A], the IC50 was greater than 10000 nM.

Turning to `C[C@@H](NC(=O)[C@@H]1CN(C(=O)c2cnn(Cc3ccccc3)c2)CC12CN(C(=O)[C@H]1CC1(C)C)C2)c1cccc(F)c1` [I-128A], the IC50 is greater than 10000 nM.

For `CNC(=O)[C@@H](NC(=O)[C@H]1CN(C(=O)c2cnn(Cc3ccccc3)c2)CC12CN(C(=O)C1(C#N)CC1)C2)[C@@H](C)OCc1ccccc1` [I-73B], the IC50 is greater than 10000 nM.

Take `CNC(=O)[C@@H](NC(=O)[C@@H]1CN(C(=O)c2cncs2)CC12CN(C(=O)[C@H]1CC1(C)C)C2)[C@@H](C)OCc1ccccc1` [I-24A, (S)—N-((2S,3R)-3-(benzyloxy)-1-(methylamino)-1-oxobutan-2-yl)-2-((S)-2,2-dimethylcyclopropane-1-carbonyl)-6-(thiazole-5-carbonyl)-2,6-diazaspiro[3.4]octane-8-carboxamide]: the IC50 lay within 100 to 1000 nM.

Consider `CC1(C)C[C@@H]1C(=O)N1CC2(CN(C(=O)c3cnn(Cc4ccccc4)c3)C[C@H]2C(=O)NC2CCNC(=O)C2)C1` (some centres unmarked) [I-223], for which the IC50 is greater than 10000 nM.

Take `COC[C@H]1CCCN(C(=O)[C@@H](NC(=O)[C@@H]2CN(C(=O)c3cncs3)CC23CN(C(=O)[C@H]2CC2(C)C)C3)[C@@H](C)OCC2CCC3(CCC3)CC2)C1` [I-390]: the IC50 is no more than 10 nM.

In the case of `C[C@@H](OCC12CCC(CC1)OC2)[C@H](NC(=O)[C@@H]1CN(C(=O)c2cncs2)CC12CN(C(=O)[C@H]1CC1(C)C)C2)C(=O)N1CCC[C@H](COC(F)F)C1` [I-461], the IC50 was no more than 10 nM.

On to `CC1(C)C[C@@H]1C(=O)N1CC2(CN(C(=O)c3cnn(Cc4ccccc4)c3)C[C@@H]2C(=O)Nc2ccc(Cc3ccccc3)nc2)C1` [I-168], for which the IC50 was 1000 to 10000 nM.

As for `CNC(=O)[C@@H](NC(=O)[C@@H]1CN(C(=O)c2cnn(Cc3ccccc3)c2)CC12CN(C(=O)NC1CC1)C2)[C@@H](C)OCC1CCCCC1` [I-268, (S)-6-(1-benzyl-1H-pyrazole-4-carbonyl)-N8-((2S,3R)-3-(cyclohexylmethoxy)-1-(methylamino)-1-oxobutan-2-yl)-N2-cyclopropyl-2,6-diazaspiro[3.4]octane-2,8-dicarboxamide], the IC50 was greater than 10000 nM.

With `C[C@@H](OCC1CCCCC1)[C@H](NC(=O)[C@@H]1CN(C(=O)c2cnn(Cc3ccccc3)c2)CC12CN(C(=O)[C@H]1CC1(C)C)C2)C(=O)NCCC(=O)OC(C)(C)C` [I-478], the IC50 is no more than 10 nM.

With `CNC(=O)[C@@H](NC(=O)[C@H]1CN(Cc2cncs2)CC12CN(C(=O)[C@H]1CC1(C)C)C2)[C@@H](C)OCc1ccccc1` [I-51B], the IC50 is greater than 10000 nM.

In the case of `C[C@@H](OCC1CCCCC1)[C@H](NC(=O)[C@@H]1CN(C(=O)c2cnn(Cc3ccccc3)c2)CC12CN(C(=O)[C@H]1CC1(C)C)C2)C(=O)N1CCC[C@@H]1CN` [I-238], the IC50 lay in the range of 10 to 100 nM.

Consider `CC1(C)C[C@@H]1C(=O)N1CC2(CN(C(=O)c3cnn(Cc4ccccc4)c3)C[C@H]2C(=O)Nc2cccc(Cc3ccccc3)c2)C1` [I-75A], for which the IC50 was in the range of 1000 to 10000 nM.

As for `Cc1ccc2[nH]c(CNC(=O)C3CN(C(=O)c4cnn(Cc5ccccc5)c4)CC34CN(C(=O)[C@H]3CC3(C)C)C4)nc2c1` (some centres unmarked) [I-278], the IC50 fell in the range of 1000 to 10000 nM.

Regarding `C[C@@H](OCC1CCOCC1)[C@H](NC(=O)[C@@H]1CN(C(=O)c2cncs2)CC12CN(C(=O)[C@H]1CC1(C)C)C2)C(=O)N1CCC[C@H](COC(F)(F)F)C1` [I-327], the IC50 was 10 to 100 nM.

`COC[C@H]1CCCN(C(=O)[C@@H](NC(=O)[C@@H]2CN(C(=O)c3cncs3)CC23CN(C(=O)C(C)(C)C2CC2)C3)[C@@H](C)OC[C@H]2CC[C@H](O)CC2)C1` [I-431]: the IC50 was 100 to 1000 nM.

Regarding `CNC(=O)[C@@H](NC(=O)[C@@H]1CN(C(=O)c2cnn(Cc3ccc(F)cc3)c2)CC12CN(C(=O)[C@H]1CC1(C)C)C2)[C@@H](C)OCc1ccc(F)cc1` [I-136A], the IC50 was in the range of 10 to 100 nM.

As to `CNC(=O)[C@@H](NC(=O)[C@@H]1CN(C(=O)c2cnn(Cc3ccccc3)c2)CC12CN(C(=O)C(C)(C)C)C2)[C@@H](C)OCC1CCCCC1` [I-174A], the IC50 was 10 to 100 nM.

Take `CNC(=O)[C@@H](NC(=O)C1(C)CN(C(=O)c2cnn(Cc3ccccc3)c2)CC12CN(C(=O)[C@H]1CC1(C)C)C2)[C@@H](C)OCc1ccccc1` (stereo partly drawn) [I-498, 6-(1-benzyl-1H-pyrazole-4-carbonyl)-N-((2S,3R)-3-(benzyloxy)-1-(methylamino)-1-oxobutan-2-yl)-2-((S)-2,2-dimethylcyclopropane-1-carbonyl)-8-methyl-2,6-diazaspiro[3.4]octane-8-carboxamide]: the IC50 was 1000 to 10000 nM.

As to `CNC(=O)[C@@H](NC(=O)[C@@H]1CN(C(=O)c2cncs2)CC12CN(C(=O)[C@H]1CC1(C)C)C2)[C@@H](C)OCC12CCC(CC1)OC2` [I-342], the IC50 lay within 10 to 100 nM.

As to `CNC(=O)[C@@H](NC(=O)[C@@]1(C)CN(C(=O)c2cnn(Cc3ccccc3)c2)CC12CN(C(=O)[C@H]1CC1(C)C)C2)[C@@H](C)OCC1CCCCC1` [I-499B], the IC50 was greater than 10000 nM.

As for `CN(C(=O)[C@@H]1CCCN(C(=O)[C@@H]2CN(C(=O)c3cnn(Cc4ccccc4)c3)CC23CN(C(=O)[C@H]2CC2(C)C)C3)C1)C1CCCCC1` [I-181], the IC50 was in the range of 1000 to 10000 nM.

For `CNC(=O)[C@@H](NC(=O)[C@@H]1CN(C(=O)c2cncs2)CC12CN(C(=O)[C@H]1CC1(C)C)C2)[C@@H](C)OC(C)C1CCCCC1` (some centres unmarked) [I-279], the IC50 is 10 to 100 nM.

In the case of `C[C@@H](OCC1CCCCC1)[C@H](NC(=O)[C@H]1CN(C(=O)c2cnn(Cc3ccccc3)c2)CC12CN(C(=O)[C@H]1CC1(C)C)C2)C(=O)N1CC(C)(C)C1` [I-153B], the IC50 was 1000 to 10000 nM.

As for `C[C@H](OC1CCN(C(=O)[C@@H]2CN(C(=O)c3cnn(Cc4ccccc4)c3)CC23CN(C(=O)[C@H]2CC2(C)C)C3)CC1)c1ccccc1` [I-275], the IC50 was in the range of 100 to 1000 nM.

For `COC[C@H]1CCCN(C(=O)[C@@H](NC(=O)[C@@H]2CN(C(=O)c3cncs3)CC23CN(C(=O)[C@H]2CC2(C)C)C3)[C@@H](C)OCc2ccc(C(F)(F)F)cc2)C1` [I-319], the IC50 is no more than 10 nM.

As to `CNC(=O)[C@@H](NC(=O)[C@@H]1CN(C(=O)c2cnn(Cc3ccccc3)c2)CC12CN(C(=O)[C@H]1CC1(C)C)C2)[C@@H](C)NCC1CCCCC1` [I-269, (S)-6-(1-benzyl-1H-pyrazole-4-carbonyl)-N-((2S,3R)-3-((cyclohexylmethyl)amino)-1-(methylamino)-1-oxobutan-2-yl)-2-((S)-2,2-dimethylcyclopropane-1-carbonyl)-2,6-diazaspiro[3.4]octane-8-carboxamide], the IC50 fell in the range of 100 to 1000 nM.

Consider `CO[C@H](C)[C@H](NC(=O)[C@@H]1CN(C(=O)c2cnn(Cc3ccccc3)c2)CC12CN(C(=O)[C@H]1CC1(C)C)C2)C(=O)N1CCC(CN)CC1` [I-306], for which the IC50 was in the range of 1000 to 10000 nM.

As to `CNC(=O)[C@@H](NC(=O)[C@H]1CN(C(=O)c2cnn(Cc3ccccc3)c2)CC12CN(C(=O)[C@H]1CC1(C)C)C2)[C@@H](C)OCC1CCC1` [I-144B], the IC50 is 1000 to 10000 nM.
